In patent US20060099682A1, “Human vanilloid receptors and their uses” (Glaxo Group Limited, priority 1998, published 2006):

Key:
Format in all cases: cell-based
hVR1 [1] = molecular target: T1, hVR1 (Homo sapiens, UniProt Q8NER1, M315I/T469I); assay: Whole-cell patch clamp electrophysiology of human VR-1 channels transiently expressed in HEK293T cells; parameters: pClN5-new (B) with the full length hVR1 gene cloned via NotI and EcoRI restriction sites; expressed in transfected cells; host or cells: HEK293T
T1 sequence (Q8NER1 whole entry M315I/T469I, the tested form may be a part): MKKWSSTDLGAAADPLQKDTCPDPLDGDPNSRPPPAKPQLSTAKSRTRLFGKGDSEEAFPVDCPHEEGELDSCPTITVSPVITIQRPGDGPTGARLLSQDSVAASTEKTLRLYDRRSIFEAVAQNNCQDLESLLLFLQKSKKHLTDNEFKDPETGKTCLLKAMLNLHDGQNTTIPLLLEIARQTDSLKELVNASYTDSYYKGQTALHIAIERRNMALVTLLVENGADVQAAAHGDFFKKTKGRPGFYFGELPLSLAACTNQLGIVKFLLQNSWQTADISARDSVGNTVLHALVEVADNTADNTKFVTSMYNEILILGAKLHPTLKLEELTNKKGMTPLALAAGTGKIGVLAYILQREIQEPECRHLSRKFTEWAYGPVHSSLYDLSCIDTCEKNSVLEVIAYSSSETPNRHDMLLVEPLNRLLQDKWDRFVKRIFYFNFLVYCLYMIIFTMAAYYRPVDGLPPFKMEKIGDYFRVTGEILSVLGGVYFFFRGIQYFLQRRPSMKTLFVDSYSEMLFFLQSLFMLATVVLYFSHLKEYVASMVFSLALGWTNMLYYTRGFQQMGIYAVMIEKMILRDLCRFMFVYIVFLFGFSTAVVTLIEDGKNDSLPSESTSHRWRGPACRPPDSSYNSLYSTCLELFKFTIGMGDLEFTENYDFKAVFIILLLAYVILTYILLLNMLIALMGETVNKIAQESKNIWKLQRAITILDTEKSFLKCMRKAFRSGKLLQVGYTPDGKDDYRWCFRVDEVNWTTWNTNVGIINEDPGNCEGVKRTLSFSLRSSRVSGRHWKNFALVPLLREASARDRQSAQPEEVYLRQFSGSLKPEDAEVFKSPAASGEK
Procedure: The activation of human VR-1 channels transiently expressed in HEK293T cells by capsaicin was investigated. Cells grown on poly-L-lysine-coated glass coverslips were placed in a recording chamber (0.5 ml) and superfused with extracellular solution (2 ml min^−1). The extracellular solution contained: NaCl (140 mM), KCl (5 mM), MgCl2 (2 mM), CaCl2 (2 mM), 4-(2-hydroxethyl)-1-piperazineethanesulphonic acid (HEPES, 10 mM) and glucose (10 mM). The pH was adjusted to 7.4 with NaOH and osmolarity ranged from 310-320 mOsm I^−1. Patch pipettes (borosilicate glass) were pulled using a Sutter P-97 electrode puller. The pipettes were filled with an internal solution consisting of: CsCl (140 mM), ethylene glycol-bis(β-aminoethyl ether) N,N,N′,N′-tetra acetic acid Cs salt (Cs-EGTA, 5 mM) and HEPES (10 mM). The pH was adjusted to 7.25 using CsOH and the osmolarity ranged from 275-290 mOsm. When filled with this internal solution, patch electrodes had resistances of 2-5 MΩ. Currents were recorded using standard whole-cell voltage clamp recording techniques (31) at room temperature (21-23° C.) using an Axopatch 200A amplifier and signals were sampled at 2 or 0.1 kHz. The majority of series resistance errors (80-85%) were minimized with compensation circuitry. Membrane potentials were not corrected for junction potentials (<4 mV). Voltage pulses and data collection were performed on-line using pClamp8 software (Axon Instruments) interfaced with amplifiers. Membrane potentials were maintained at −60 mV between protocols.
Capsaicin or capsazepine (CPZ) were applied, using a ‘fast-flow sytem’, directly onto the recording cell (<1 s to equilibrate). […]

rat VR1 = molecular target: T2, rat VR1 (Rattus norvegicus, UniProt O35433); assay: FLIPR calcium assay (fluo3-AM) with HEK293 cells stably expressing rat VR1
T2 construct: expressed in transfected cells
T2 sequence (O35433 whole entry): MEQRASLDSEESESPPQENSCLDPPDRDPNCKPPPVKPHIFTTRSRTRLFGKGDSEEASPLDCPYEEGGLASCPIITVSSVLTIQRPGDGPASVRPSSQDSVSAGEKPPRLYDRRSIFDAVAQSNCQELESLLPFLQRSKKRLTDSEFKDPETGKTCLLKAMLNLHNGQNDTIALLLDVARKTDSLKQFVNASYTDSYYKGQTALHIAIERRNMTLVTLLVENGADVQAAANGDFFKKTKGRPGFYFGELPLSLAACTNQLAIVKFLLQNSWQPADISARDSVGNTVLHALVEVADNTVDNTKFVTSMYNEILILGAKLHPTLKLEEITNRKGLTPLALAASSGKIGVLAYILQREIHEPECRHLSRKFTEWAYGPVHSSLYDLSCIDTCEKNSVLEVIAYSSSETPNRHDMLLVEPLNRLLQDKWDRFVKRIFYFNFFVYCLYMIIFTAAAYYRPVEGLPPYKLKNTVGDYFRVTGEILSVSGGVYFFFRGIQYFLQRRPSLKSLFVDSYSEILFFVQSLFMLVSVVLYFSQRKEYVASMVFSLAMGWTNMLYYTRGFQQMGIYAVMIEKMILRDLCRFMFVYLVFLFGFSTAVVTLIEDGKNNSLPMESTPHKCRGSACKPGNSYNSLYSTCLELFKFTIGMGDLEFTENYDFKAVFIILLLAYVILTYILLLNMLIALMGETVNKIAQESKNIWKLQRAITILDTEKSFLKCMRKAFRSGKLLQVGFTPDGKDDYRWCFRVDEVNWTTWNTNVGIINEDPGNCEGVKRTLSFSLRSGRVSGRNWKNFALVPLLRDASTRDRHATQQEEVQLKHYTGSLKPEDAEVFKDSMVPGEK
Procedure: Intracellular calcium is monitored with the calcium sensitive dye, fluo3-AM. HEK293 cells stably expressing rat VR1 were plated into a 96 well, poly-l-lysine treated FLIPR plate at 3×10^4 cells per well. On the following day, the plate was processed for FLIPR. FBP buffer was prepared (15 μM Probenecid (calcium ATPase pump blocker) in 1× FLIPR buffer (145 mM NaCl, 5 mM KCl, 1 mM MgCl2, 2 mM CaCl2, 10 mM glucose, 20 mM Hepes). FBP buffer pH was then adjusted to 7.4 with NaOH. 400 μl DMSO was added to a vial of fluo3-AM (Cambridge Bioscience, F-1241). The fluo3-AM solution was incubated at 37° C. for 10 min and vortexed. LOAD was prepared by adding 20 μl of fluo3-AM solution and 20 μl 20% pleuronic F-127 in DMSO (Cambridge Bioscience, P-3000) into 10 ml FBP. The 96 well plate containing cells was flicked off to remove cell medium. 100 μl LOAD was added per well. Cells were then incubated at 37° C. for 60 minutes. Capsaicin (a rVR1 agonist) and capsazepine (CPZ, a rVR1 antagonist) were prepared at 10× the desired final assay concentrations in FBP. The plate was flicked to remove LOAD from cells, and 180 μl FBP was added per well. […] Cells were monitored for 70 seconds after agonist addition. The FLIPR traces (fluorescence change (counts) versus time (seconds)) were produced for each well. […] The plate was incubated for 15 minutes at room temperature prior reading in the FLIPR.

hVR1 [2] = molecular target: T1, hVR1; assay: Calcium imaging (fura2-AM) with HEK293 cells expressing hVR1; parameters: pClN5-new (B) with the full length hVR1 gene cloned via NotI and EcoRI restriction sites; expressed in transfected cells; host or cells: HEK293; conditions: 37° C.
[3] = 1 μM CPZ against 1 μM capsaicin, holding potential −60 mV

Row | blockade of capsaicin-evoked inward current (hVR1 [1]; [3]) | reversibility of blockade (hVR1 [1]; [3]) | blockade of capsaicin-evoked current in voltage ramps (hVR1 [1]; 1 μM CPZ against 1 μM capsaicin, voltage ramps −100 to +70 mV) | recovery after blockade in voltage ramps (hVR1 [1]; 1 μM CPZ, especially inward currents evoked by negative potentials) | antagonism of the capsaicin VR1 response (FLIPR peak heights) (rat VR1; cells pre-incubated in CPZ 15 minutes at room temperature) | calcium influx response after addition of agonist (hVR1 [2]) | current-voltage relationship (hVR1 [1]; 1 μM capsaicin, voltage ramps −100 to +70 mV) | size of capsaicin-evoked current when external calcium replaced (hVR1 [1]; capsaicin 1 μM, external calcium replaced with 5 mM EGTA) | current evoked by application of capsaicin (hVR1 [1]; capsaicin 1 μM, membrane held at −60 mV, HEK293T transiently expressing human VR1) | Structure (SMILES) | reduction of current by the 6th addition (desensitisation, rundown) (hVR1 [1]; capsaicin 1 μM added at 2 min intervals for about 40 s, 2 mM external calcium, current at +65 mV) | FLIPR trace after agonist addition (fluorescence change) (rat VR1; HEK293 stably expressing rVR1, monitored 70 seconds after addition)
1 | abolished | partially reversible | completely blocked the current | only partial recovery was observed | peak heights are reduced | – | – | – | – | Oc1cc2c(cc1O)CN(C(=S)NCCc1ccc(Cl)cc1)CCC2 [CPZ, capsazepine] | – | –
2 | – | – | – | – | – | stimulated to influx calcium | substantial outward rectification | increased dramatically | produces an inward current | COc1cc(CNC(=O)CCCC/C=C/C(C)C)ccc1O [capsaicin] | about 4 fold | Peaks indicate capsaicin-gated calcium influx
